The values that follow come from patent US20110039762A1, “TARGETED ANTIMICROBIAL MOIETIES” (C3 JIAN, INC., priority 2009, published 2011).

“Also recorded” adds a separate entry of the source.

The test system of one assay is S. epidermidis. Nature of the assay: Kill or inhibit growth/proliferation; morphology, biofilm and growth disruption (Tables 5, 6). Further: test concentration or dose not given here. More on the design: key: A: Peptide aggregates; B: Less hyphal formation; Clumps; Diffuse clumps and small polyps; F: Diffuse growth; H: Thin; I: Growth inhibition; Microcolony formation; Rippled; Small polyps; Thick; W: Halo formation on top, microlonies on bottom. The format is cell-based, Staphylococcus epidermidis.

The test system of the next assay is M. luteus. Described as above. Format: cell-based, Micrococcus luteus. Further details: key: A: Peptide aggregates; B: Less hyphal formation; Clumps; Diffuse clumps and small polyps; F: Diffuse growth; H: Thin; I: Growth inhibition; Microcolony formation; Rippled; Small polyps; Thick; W: Halo formation on top, microlonies on bottom.
For a further assay, the system named is B. subtilis. The description is as above. Further details: key: A: Peptide aggregates; B: Less hyphal formation; Clumps; Diffuse clumps and small polyps; F: Diffuse growth; H: Thin; I: Growth inhibition; Microcolony formation; Rippled; Small polyps; Thick; W: Halo formation on top, microlonies on bottom. The format is cell-based, Bacillus subtilis. Further: test concentration or dose not given here.
In the next assay the test system is microorganisms. Nature of the assay: Peptides having multiple activities (targeting/binding, antimicrobial, growth or phenotype altering). The source says:
In certain embodiments, peptides described herein can have multiple activities. Thus for example, a peptide can have both binding/targeting activity and antimicrobial activity. Such peptides can be used, e.g., in a chimeric construct, for any or all of these properties. Thus, for example, a peptide designated “B” in Table 8 can be used as a targeting peptide. If it is also designated G or M it can also be used for antimicrobial activity.

A further assay relates to S. pneumoniae. Briefly: Kill or inhibit growth/proliferation; morphology, biofilm and growth disruption (Tables 5, 6). Further: test concentration or dose not given here. The format is cell-based, Streptococcus pneumoniae. Further details: key: A: Peptide aggregates; B: Less hyphal formation; Clumps; Diffuse clumps and small polyps; F: Diffuse growth; H: Thin; I: Growth inhibition; Microcolony formation; Rippled; Small polyps; Thick; W: Halo formation on top, microlonies on bottom.

A further assay concerns C. jejuni. The description is as above. More on the design: key: A: Peptide aggregates; B: Less hyphal formation; Clumps; Diffuse clumps and small polyps; F: Diffuse growth; H: Thin; I: Growth inhibition; Microcolony formation; Rippled; Small polyps; Thick; W: Halo formation on top, microlonies on bottom. Format: cell-based, Campylobacter jejuni. Further: test concentration or dose not given here.
The subject of another assay is MRSA. Described as above. Format: cell-based, Methicillin-resistant Staphylococcus aureus. Further details: key: A: Peptide aggregates; B: Less hyphal formation; Clumps; Diffuse clumps and small polyps; F: Diffuse growth; H: Thin; I: Growth inhibition; Microcolony formation; Rippled; Small polyps; Thick; W: Halo formation on top, microlonies on bottom.
Assay [1] deals with microorganisms (e.g., bacteria, yeasts, fungi). Nature of the assay: Targeting peptide binding to target microorganisms (Table 3). The note with it: preferably 1x PBS.
A further assay relates to C. jeikeium. Nature of the assay: Kill or inhibit growth/proliferation; morphology, biofilm and growth disruption (Tables 5, 6). Further: test concentration or dose not given here. Further details: key: A: Peptide aggregates; B: Less hyphal formation; Clumps; Diffuse clumps and small polyps; F: Diffuse growth; H: Thin; I: Growth inhibition; Microcolony formation; Rippled; Small polyps; Thick; W: Halo formation on top, microlonies on bottom. The format is cell-based, Corynebacterium jeikeium.

Where [2] appears, read: microorganism(s) the targeting peptide binds, peptide binding conducted in aqueous buffers varied by peptide solubility.
Where [3] appears, read: microorganism the targeting peptide binds, binding in aqueous buffers varied by peptide solubility.
Wherever Organism, effect is given: test concentration or dose not given here.

For the substance “PF-171: peptide having multiple activities (TQVTLCRTW; Peptide with targeting and/or antimicrobial activity)”, the “Organism, effect” value is “S. epidermidis (R)” with S. epidermidis; “M. luteus (R)” with M. luteus; “B. subtilis (D)” in the assay with B. subtilis; “S. pneumoniae (D)” in the assay on S. pneumoniae; “C. jejuni (R)” in the assay on C. jejuni; “MRSA (M)” in the assay on MRSA. Moreover, the Activities result in the assay on microorganisms is on record as “G B”. Moreover, the “Target(s)” value in [1] (microorganism(s) the targeting peptide binds, binding in aqueous buffers depending on peptide solubility) is recorded as “S. epidermidis; also recorded: E. coli; also recorded: P. aeruginosa; also recorded: S. pneumoniae”.

As to “PF-560: peptide having multiple activities (chain 1 FGNPFRGFTLAMEADFKKRK; chain 2 FGNPFRGFTLAMEADFKKRK; Peptide with targeting and/or antimicrobial activity)”, the “Organism, effect” value with B. subtilis is listed as “B. subtilis (D)”; in the assay with S. pneumoniae, “S. pneumoniae (R)”; in the assay with C. jejuni, “C. jejuni (A)”; with MRSA it was “MRSA (C)”. In addition, in the assay on microorganisms, the Activities result is listed as “G B”. Moreover, the “Target(s)” value in assay [1] (setting [2]) is on record as “S. epidermidis; also recorded: M. luteus; also recorded: E. coli; also recorded: S. pneumoniae; also recorded: C. jeikeium; also recorded: C. jejuni”.

Consider “PF-553: peptide having multiple activities (chain 1 LTIVGNALQQKNQKLLLNQKKITSLG; chain 2 LTIVGNALQQKNQKLLLNQKKITSLG; Peptide with targeting and/or antimicrobial activity)”, for which the “Organism, effect” value is given as “B. subtilis (D)” in the assay with B. subtilis, “S. pneumoniae (R)” in the assay on S. pneumoniae, “C. jeikeium (R)” in the assay on C. jeikeium and “MRSA (M)” in the assay on MRSA. Besides, the Activities result in the assay with microorganisms is reported as “G B”. Further, in assay [1] (setting [2]), the “Target(s)” value is “S. epidermidis and E. coli and P. aeruginosa and C. albicans and MRSA and S. pneumoniae and C. jeikeium”.

For “PF-145: peptide having multiple activities (GIVLTGRAGLVSGACSMALGVGLG; Peptide with targeting and/or antimicrobial activity)”, the “Organism, effect” value in the assay with S. epidermidis was “S. epidermidis (D)”; in the assay on M. luteus it was “M. luteus (A)”; in the assay with B. subtilis, “B. subtilis (C)”; with S. pneumoniae, “S. pneumoniae (R)”; with C. jeikeium it was “C. jeikeium (R)”; with C. jejuni, “C. jejuni (R)”. For the same substance, the “Organism, effect” value in the assay with MRSA is reported as “MRSA (M)”. Besides, the Activities entry with microorganisms is on record as “G B”.

As to “PF-548: peptide having multiple activities (chain 1 ARPIADLIHFNSTTVTASGDVYYGPG; chain 2 ARPIADLIHFNSTTVTASGDVYYGPG; Peptide with targeting and/or antimicrobial activity)”, the “Organism, effect” value with S. epidermidis is listed as “S. epidermidis (M)”; with M. luteus, “M. luteus (A)”; in the assay on B. subtilis it was “B. subtilis (C)”; in the assay on S. pneumoniae, “S. pneumoniae (D)”; in the assay on C. jeikeium, “C. jeikeium (R)”; with C. jejuni, “C. jejuni (D)”. Also, in the assay with MRSA, the “Organism, effect” value was “MRSA (M)”. Besides, the Activities result in the assay on microorganisms is “G B”.

In the case of “PF-069: peptide having multiple activities (FDPVPLKKDKSASKHSHKHNH; Peptide with targeting and/or antimicrobial activity)”, the entries for the “Organism, effect” value in the assay with B. subtilis and with C. jejuni were “B. subtilis (D)” and “C. jejuni (R)”, respectively. Further, the Activities entry in the assay on microorganisms is “G B”. Besides, the “Target(s)” value in assay [1] (setting [3]) was “E. faecalis; also recorded: C. jejuni”.

For “PF-566: peptide having multiple activities (chain 1 EAQQVTQQLGADFNAITTPTATKV; chain 2 EAQQVTQQLGADFNAITTPTATKV; Peptide with targeting and/or antimicrobial activity)”, the “Organism, effect” value with M. luteus is “M. luteus (D)”; with B. subtilis, “B. subtilis (C)”; in the assay on S. pneumoniae, “S. pneumoniae (D)”; in the assay on C. jeikeium it was “C. jeikeium (C)”; in the assay with C. jejuni it was “C. jejuni (D)”; with MRSA, “MRSA (M)”. The Activities result with microorganisms was “G B”. For the same substance, the “Target(s)” value in assay [1] (setting [2]) was “P. mirabilis; also recorded: S. pneumoniae”.

Regarding “PF-558: peptide having multiple activities (chain 1 ADAPPPLIVRYS; chain 2 ADAPPPLIVRYS; Peptide with targeting and/or antimicrobial activity)”, the “Organism, effect” value with S. epidermidis is “S. epidermidis (M)”; with B. subtilis, “B. subtilis (D)”; with S. pneumoniae, “S. pneumoniae (R)”; in the assay with C. jejuni it was “C. jejuni (H)”; in the assay on MRSA it was “MRSA (C)”. For the same substance, the Activities entry with microorganisms was “G B”. In addition, in assay [1] (setting [2]), the “Target(s)” value was “S. epidermidis; also recorded: E. coli; also recorded: C. albicans; also recorded: C. jeikeium; also recorded: C. jejuni”.

On to “PF-563: peptide having multiple activities (chain 1 RPELDNELDVVQNSASLDKLQASYN; chain 2 RPELDNELDVVQNSASLDKLQASYN; Peptide with targeting and/or antimicrobial activity)”, for which the “Organism, effect” value in the assay on B. subtilis is listed as “B. subtilis (D)”; in the assay with S. pneumoniae, “S. pneumoniae (H)”; with C. jejuni, “C. jejuni (H)”. Besides, the Activities entry in the assay with microorganisms is given as “G B”. Moreover, the “Target(s)” value in [1] (setting [2]) is reported as “S. epidermidis; also recorded: M. luteus; also recorded: C. jeikeium”.

For the substance “PF-008: peptide having multiple activities (chain 1 MIEIGSIAYLNGGSKKYNHILNQENR; chain 2 MIEIGSIAYLNGGSKKYNHILNQENR; Peptide with targeting and/or antimicrobial activity)”, the “Organism, effect” value in the assay with B. subtilis was “B. subtilis (D)”; in the assay with C. jejuni, “C. jejuni (R)”. Besides, the Activities result in the assay on microorganisms was “G B”. Moreover, the “Target(s)” value in assay [1] (setting [3]) is “S. epidermidis and M. luteus and MRSA and C. jejuni”.

Take “PF-564: peptide having multiple activities (chain 1 TIILNDQINSLQERLNKLNAETDRR; chain 2 TIILNDQINSLQERLNKLNAETDRR; Peptide with targeting and/or antimicrobial activity)”: the “Organism, effect” value was “B. subtilis (D)” in the assay on B. subtilis, “C. jeikeium (R)” in the assay with C. jeikeium, “C. jejuni (R)” in the assay with C. jejuni and “MRSA (C)” with MRSA. In addition, the Activities entry in the assay with microorganisms was “G B”. For the same substance, the “Target(s)” value in assay [1] (setting [2]) is recorded as “S. epidermidis; also recorded: C. albicans; also recorded: S. pneumoniae; also recorded: C. jeikeium”.

For the substance “PF-061: peptide having multiple activities (chain 1 GYNSYKAVQDVKTHSEEQRVTAKK; chain 2 GYNSYKAVQDVKTHSEEQRVTAKK; Peptide with targeting and/or antimicrobial activity)”, the “Organism, effect” value in the assay on S. epidermidis is “S. epidermidis (R)”; with B. subtilis, “B. subtilis (R)”; with S. pneumoniae, “S. pneumoniae (R)”; in the assay on C. jejuni it was “C. jejuni (R)”. The Activities entry in the assay on microorganisms is listed as “G B”. Besides, the “Target(s)” value in assay [1] (setting [3]) is “S. epidermidis; also recorded: S. pneumoniae”.
